In ChEMBL document CHEMBL1133297, “Synthesis and erythropoietin receptor binding affinities of N,N-disubstituted amino acids” (Bioorg Med Chem Lett, 2000):
Where a SMILES comes first, the peptide text is derived from it.

Legend:
[1] = biological target: T1, Erythropoietin receptor (Homo sapiens) (UniProt P19235); experiment: Compound was evaluated for inhibition of [125I]EPO binding to Erythropoietin receptor (EBP) at a concentration of 50 uM
T1 sequence (whole entry): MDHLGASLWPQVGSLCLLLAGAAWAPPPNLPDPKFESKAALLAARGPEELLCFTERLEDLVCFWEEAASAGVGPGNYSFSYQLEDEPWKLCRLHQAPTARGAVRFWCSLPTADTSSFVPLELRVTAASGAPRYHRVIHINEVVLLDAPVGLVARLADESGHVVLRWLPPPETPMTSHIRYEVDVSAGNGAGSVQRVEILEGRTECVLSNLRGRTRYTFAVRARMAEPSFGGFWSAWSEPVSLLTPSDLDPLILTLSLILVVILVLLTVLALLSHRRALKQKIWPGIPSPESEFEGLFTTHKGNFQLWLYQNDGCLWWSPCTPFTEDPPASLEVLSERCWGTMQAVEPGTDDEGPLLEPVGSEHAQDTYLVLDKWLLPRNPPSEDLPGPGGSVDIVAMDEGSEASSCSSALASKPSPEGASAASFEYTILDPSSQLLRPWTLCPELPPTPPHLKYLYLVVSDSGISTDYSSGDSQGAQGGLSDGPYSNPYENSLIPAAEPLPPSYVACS

Erythropoietin receptor [2] = biological target: T2, Erythropoietin receptor (Homo sapiens, UniProt P19235); experiment: Compound was evaluated for inhibition of [125I]-EPO binding to Erythropoietin receptor (EBP)
T2 sequence (P19235 whole entry): T1 sequence (whole entry)

[3] = biological target: T1, Erythropoietin receptor (Homo sapiens); experiment: Compound was evaluated for inhibition of [125I]EPO binding to EBP (erythropoietin receptor) at a concentration of 50 uM
Erythropoietin receptor [4] = biological target: T2, Erythropoietin receptor; experiment: Compound was evaluated for inhibition of [125I]EPO binding to Erythropoietin receptor (EBP)

SMILES | inhibition [1] | IC50 (Erythropoietin receptor [2]) | inhibition [3] | IC50 (Erythropoietin receptor [4])
COC(=O)[C@H](CCCCNC(=O)OC(C)(C)C)N(Cc1ccc(OCc2ccccc2)cc1)Cc1ccc(OCc2ccccc2)cc1 | 5% |  |  | 
O=C(O)C[C@@H](C(=O)O)N(C/C=C/c1cccc(Oc2ccccc2)c1)C/C=C/c1cccc(Oc2ccccc2)c1 | 81% |  |  | 
O=C(O)CN(C/C=C/c1cccc(Oc2ccccc2)c1)C/C=C/c1cccc(Oc2ccccc2)c1 | 45% |  |  | 
O=C(O)C[C@@H](C(=O)NCCCOCCOCCOCCCNC(=O)[C@H](CC(=O)O)N(Cc1ccc(OCc2ccccc2)cc1)Cc1ccc(OCc2ccccc2)cc1)N(Cc1ccc(OCc2ccccc2)cc1)Cc1ccc(OCc2ccccc2)cc1 | 66% | 28 µM |  | 
O=C(O)CCC(=O)NCCCC[C@H](C(=O)NCCCOCCCCOCCCNC(=O)[C@H](CCCCNC(=O)CCC(=O)O)N(Cc1ccc(OCc2ccccc2)cc1)Cc1ccc(OCc2ccccc2)cc1)N(Cc1ccc(OCc2ccccc2)cc1)Cc1ccc(OCc2ccccc2)cc1 | 65% | 6 µM |  | 
CC(C)(C)c1ccc(Oc2cccc(/C=C/CN(C/C=C/c3cccc(Oc4ccc(C(C)(C)C)cc4)c3)[C@@H](CCC(=O)O)C(=O)O)c2)cc1 | 78% | 30 µM |  | 
O=C(O)CC[C@H](C(=O)NCCOCCOCCNC(=O)[C@H](CCC(=O)O)N(Cc1ccc(OCc2ccccc2)cc1)Cc1ccc(OCc2ccccc2)cc1)N(Cc1ccc(OCc2ccccc2)cc1)Cc1ccc(OCc2ccccc2)cc1 | 79% |  |  | 
COC(=O)[C@H](CCCCNS(C)(=O)=O)N(C/C=C/c1cccc(Oc2ccccc2)c1)C/C=C/c1cccc(Oc2ccccc2)c1 | 77% | 35 µM |  | 
COC(=O)[C@H](CCCCNC(=O)OC(C)(C)C)NC/C=C/c1cccc(Oc2ccccc2)c1 | 20% |  |  | 
COC(=O)[C@H](CCCCN)N(Cc1cccc(OCc2ccccc2)c1)Cc1cccc(OCc2ccccc2)c1 | 59% | 10 µM |  | 
NCCCC[C@H](C(=O)NCCOCCOCCNC(=O)[C@H](CCCCN)N(Cc1ccc(OCc2ccccc2)cc1)Cc1ccc(OCc2ccccc2)cc1)N(Cc1ccc(OCc2ccccc2)cc1)Cc1ccc(OCc2ccccc2)cc1 | 51% | 2 µM |  | 
CC(C)(C)OC(=O)C[C@@H](C(=O)OC(C)(C)C)N(C/C=C/c1cccc(Oc2ccccc2)c1)C/C=C/c1cccc(Oc2ccccc2)c1 | 20% |  |  | 
COC(=O)[C@H](CCC(=O)O)NC/C=C/c1cccc(Oc2ccccc2)c1 | 6% |  |  | 
COC(=O)[C@H](CO)NC/C=C/c1cccc(Oc2ccccc2)c1 | 28% |  |  | 
O=C(O)CC[C@@H](C(=O)O)N(C/C=C/c1cccc(Oc2ccccc2)c1)C/C=C/c1cccc(Oc2ccccc2)c1 | 78% | 42 µM |  | 
O=C(O)CCCC(=O)NCCCC[C@H](C(=O)NCCCCCCCCCCCCNC(=O)[C@H](CCCCNC(=O)CCCC(=O)O)N(Cc1ccc(OCc2ccccc2)cc1)Cc1ccc(OCc2ccccc2)cc1)N(Cc1ccc(OCc2ccccc2)cc1)Cc1ccc(OCc2ccccc2)cc1 | 55% | 85 µM |  | 
O=C(O)CC[C@H](NC/C=C/c1cccc(Oc2ccccc2)c1)C(=O)O | 0% |  |  | 
COC(=O)[C@H](CCC(=O)O)N(C/C=C/c1cccc(Oc2ccc(Cl)c(Cl)c2)c1)C/C=C/c1cccc(Oc2ccc(Cl)c(Cl)c2)c1 | 32% |  |  | 
COC(=O)[C@H](CCC(=O)OC(C)(C)C)N(C/C=C/c1cccc(Oc2ccccc2)c1)C/C=C/c1cccc(Oc2ccccc2)c1 | 0% |  |  | 
CC(C)(C)OC(=O)CC[C@H](NC/C=C/c1cccc(Oc2ccccc2)c1)C(=O)O | 0% |  |  | 
COC(=O)[C@H](CCCCNC(=O)OC(C)(C)C)N(Cc1ccc(OCc2ccccc2)cc1)Cc1cccc([N+](=O)[O-])c1 | 24% |  |  | 
COC(=O)[C@H](CCCCNC(=O)OC(C)(C)C)N(C/C=C/c1cccc(Oc2ccc(C(C)(C)C)cc2)c1)C/C=C/c1cccc(Oc2ccc(C(C)(C)C)cc2)c1 | 0% |  |  | 

SMILES | inhibition [1] | IC50 (Erythropoietin receptor [2]) | inhibition [3] | IC50 (Erythropoietin receptor [4])
COC(=O)[C@H](CCCCN)N(Cc1ccc(OCc2ccccc2)cc1)Cc1ccc(OCc2ccccc2)cc1 | 54% |  |  | 
O=C(O)CCC(=O)NCCCC[C@H](C(=O)NCCCCCCCCCCCCNC(=O)[C@H](CCCCNC(=O)CCC(=O)O)N(Cc1ccc(OCc2ccccc2)cc1)Cc1ccc(OCc2ccccc2)cc1)N(Cc1ccc(OCc2ccccc2)cc1)Cc1ccc(OCc2ccccc2)cc1 | 56% | 100 µM |  | 
O=C(O)CC[C@@H](C(=O)O)N(C/C=C/c1cccc(Oc2cccc(C(F)(F)F)c2)c1)C/C=C/c1cccc(Oc2cccc(C(F)(F)F)c2)c1 | 70% | 35 µM |  | 
O=C(O)[C@H](CO)NC/C=C/c1cccc(Oc2ccccc2)c1 | 23% |  |  | 
COC(=O)[C@H](CCCCN)N(C/C=C/c1cccc(Oc2ccc(C(C)(C)C)cc2)c1)C/C=C/c1cccc(Oc2ccc(C(C)(C)C)cc2)c1 | 18% |  |  | 
COC(=O)[C@H](COC(C)(C)C)N(C/C=C/c1cccc(Oc2ccccc2)c1)C/C=C/c1cccc(Oc2ccccc2)c1 | 0% |  |  | 
O=C(O)CCCC(=O)NCCCC[C@H](C(=O)NCCOCCOCCNC(=O)[C@H](CCCCNC(=O)CCCC(=O)O)N(Cc1ccc(OCc2ccccc2)cc1)Cc1ccc(OCc2ccccc2)cc1)N(Cc1ccc(OCc2ccccc2)cc1)Cc1ccc(OCc2ccccc2)cc1 | 88% | 1.5 µM |  | 
O=C(O)CCC(=O)NCCCC[C@H](C(=O)NCCOCCOCCNC(=O)[C@H](CCCCNC(=O)CCC(=O)O)N(Cc1ccc(OCc2ccccc2)cc1)Cc1ccc(OCc2ccccc2)cc1)N(Cc1ccc(OCc2ccccc2)cc1)Cc1ccc(OCc2ccccc2)cc1 | 93% | 1.5 µM |  | 
C[C@@H](C(=O)O)N(C/C=C/c1cccc(Oc2ccccc2)c1)C/C=C/c1cccc(Oc2ccccc2)c1 | 72% | 40 µM |  | 
O=C(O)CCCC(=O)NCCCC[C@@H](C(=O)NCCCOCCOCCOCCCNC(=O)[C@H](CCCCNC(=O)CCCC(=O)O)N(Cc1ccc(OCc2ccccc2)cc1)Cc1ccc(OCc2ccccc2)cc1)N(Cc1ccc(OCc2ccccc2)cc1)Cc1ccc(OCc2ccccc2)cc1 | 78% | 10 µM |  | 
O=C(O)CCCC(=O)NCCCC[C@H](C(=O)NCCCOCCCCOCCCNC(=O)[C@H](CCCCNC(=O)CCCC(=O)O)N(Cc1ccc(OCc2ccccc2)cc1)Cc1ccc(OCc2ccccc2)cc1)N(Cc1ccc(OCc2ccccc2)cc1)Cc1ccc(OCc2ccccc2)cc1 | 82% | 4 µM |  | 
COC(=O)[C@H](CCCCNC(=O)OC(C)(C)C)N(Cc1cccc(OCc2ccccc2)c1)Cc1cccc(OCc2ccccc2)c1 | 7% |  |  | 
COC(=O)[C@H](COC(C)(C)C)NC/C=C/c1cccc(Oc2ccccc2)c1 | 8% |  |  | 
COC(=O)[C@H](CCCCN)N(Cc1ccc(OCc2ccccc2)cc1)Cc1cccc([N+](=O)[O-])c1 | 37% |  |  | 
COC(=O)[C@H](CO)N(C/C=C/c1cccc(Oc2ccccc2)c1)C/C=C/c1cccc(Oc2ccccc2)c1 | 57% | 145 µM |  | 
COC(=O)[C@H](CCC(=O)OC(C)(C)C)NC/C=C/c1cccc(Oc2ccccc2)c1 |  |  | 6% | 
COC(=O)[C@H](CCCCNC(=O)OC(C)(C)C)N(C/C=C/c1cccc(Oc2ccccc2)c1)C/C=C/c1cccc(Oc2ccccc2)c1 | 0% |  |  | 
COC(=O)[C@H](CCCCNC(N)=O)N(C/C=C/c1cccc(Oc2ccccc2)c1)C/C=C/c1cccc(Oc2ccccc2)c1 | 73% | 35 µM |  | 
CC(C)C[C@@H]1NC(=O)[C@H]([C@@H](C)O)NC(=O)[C@H](Cc2c[nH]c3ccccc23)NC(=O)[C@H](C(C)C)NC(=O)[C@@H](NC(=O)[C@H](CCCCN)NC(=O)[C@@H]2CCCN2C(=O)[C@H](CCC(N)=O)NC(=O)CNC(=O)CN)CSSC[C@@H](C(=O)N[C@@H](Cc2ccc(O)cc2)C(=O)N[C@@H](CO)C(=O)N[C@H](C(=O)NCC(=O)NCC(N)=O)[C@@H](C)O)NC(=O)[C@H](Cc2c[nH]cn2)NC(=O)[C@H](Cc2ccccc2)NC(=O)CNC(=O)[C@@H]2CCCN2C1=O (HELM PEPTIDE1{G.G.Q.P.K.C.V.W.T.L.P.G.F.H.C.Y.S.T.G.G.[am]}$PEPTIDE1,PEPTIDE1,6:R3-15:R3$$$V2.0) |  |  |  | 5 µM
O=C(O)C[C@H](C(=O)NCCCOCCCCOCCCNC(=O)[C@H](CC(=O)O)N(Cc1ccc(OCc2ccccc2)cc1)Cc1ccc(OCc2ccccc2)cc1)N(Cc1ccc(OCc2ccccc2)cc1)Cc1ccc(OCc2ccccc2)cc1 | 75% | 18 µM |  | 
O=C(O)CCC(=O)NCCCC[C@@H](C(=O)NCCCOCCOCCOCCCNC(=O)[C@H](CCCCNC(=O)CCC(=O)O)N(Cc1ccc(OCc2ccccc2)cc1)Cc1ccc(OCc2ccccc2)cc1)N(Cc1ccc(OCc2ccccc2)cc1)Cc1ccc(OCc2ccccc2)cc1 | 77% | 7 µM |  | 
